Reference: patent US20250134870A1, “PATHWAY MODULATOR, PHARMACEUTICAL COMPOSITION HAVING SAME, USE THEREOF, AND THERAPEUTIC METHOD USING SAME” (Jiangsu Yahong Meditech Co., Ltd., priority 2021, published 2025)

How the values were obtained:
[1] = system: dextran sulfate sodium (DSS)-induced colitis; assay: DSS-induced colitis in mice, 3.1% DSS: body weight change and DAI (Example 11); type: in vivo, C57BL/6 mice; conditions: 50 mg/kg, QD
From the text: The experimental mice were housed in an SPF grade animal room for three days for adaptation, and randomly divided into 7 groups (6 model groups and 1 control group) of 10 mice in each group. Dosing of mice started on Day 0 and ended on Day 7.
The mouse enteritis model of this Example was established by DSS induction: mice in the model group were provided with a 3.1% DSS (dextran sulfate sodium, molecular weight 36,000-50,000) aqueous solution from Day 0 to Day 7, and the DSS aqueous solution was replaced with freshly prepared solution every day to prevent degradation. Mice in the normal control group were provided with normal water. The experimental period was 9 days, and the mice were euthanized and samples were collected at the experimental endpoint.
The DAI score was assessed daily. The DAI score consisted of 3 parts: body weight change, stool characteristics, and hematochezia (or occult blood) score, and the specific scoring criteria were as shown in Table 49. The DAI scoring of all mice was done by the same staff throughout the experiment.
Mice were euthanized at the experimental endpoint. The colon of mice was dissected, and photograph was taken, the length was measured, and the contents were removed before weighing.
The data were expressed as mean±standard error (X±s). Body weight change and disease activity score were statistically analyzed by two-way ANOVA and comparison between groups were performed by Dunnett's test. Other data were statistically analyzed by one-way ANOVA and comparison between groups were performed by Dunnett's test. All analyses were performed using GraphPad Prism software. * P<0.05, ** P<0.01, *** P<0.005, **** P<0.0001 vs. solvent group.

[2] = system: 2,4-dinitrobenzenesulfonic acid (DNBS)-induced colitis; assay: DNBS-induced enteritis/colitis in rats: body weight and stool score (Example 10); type: in vivo, Wistar rats; conditions: 3, 10 and 30 mg/kg
Description: The 90 animals were randomly grouped on Day-1 (i.e., the day before the experiment) based on animal body weight to ensure that the body weight of each group of animals were similar, so as to reduce bias. Rats were fasted for 40 hours before the experiment and were injected subcutaneously with 5% glucose saline (10 mL/kg, once daily) during fasting. • Experimental grouping:
On Day 1 of the experiment, fasting rats were anesthetized by intraperitoneal injection with Zoletil (25 mg/kg Tiletamine and 25 mg/kg Zolazepam) and 5 mg/kg Xylazine.
In groups G2-G6, a hose was inserted from the anus to left colic flexure (about 8 cm from the anus) and colitis was induced by DNBS enema (0.5 mL/animal) in rats. The normal control group (G1) received 30% ethanol enema by the same process. The head of the animal after enema was lowered for 15 min, and then the animal was kept in Trendelenburg position until waked to avoid backflow of the enema fluid.
The percentage of body weight was calculated according to the following formula: (body weight on Day X-initial weight)/initial weight]×100%.
(2) Stool score: during the experiment, the stool state of rats was scored daily (0=normal, 1=wet/sticky, 2=loose, 3=liquid).

[3] = system: 2,4-dinitrobenzenesulfonic acid (DNBS)-induced colitis; assay: DNBS-induced colitis in rats: pathological score of colon tissue (H&E); type: in vivo, Wistar rats
From the text: The proximal, ulcer (corresponding sites can be taken, if there was no ulcer) and distal parts of the colon tissue fixed by neutral buffered formalin were embedded with paraffin, sectioned (thickness 5 μm), and histopathological score was given by H&E staining.

peripheral blood cells = assay: Bleomycin-induced skin fibrosis in mice: blood routine test of peripheral blood (Example 5); type: in vivo, male C57BL/6 mice
Description: Animals were weighed at the experimental endpoints and the body weight was recorded to calculate the volume of administration. 6 h after dosing, firstly, whole blood was collected from the orbital venous plexus of mice and subjected to blood routine test using an automated Hematology analyzer (Sysmex XS-800i). The specific test steps were as follows: the blood sample in the test tube was thoroughly mixed before testing; the sample was placed under the sampling needle, then injected by pressing the start button, and removed after indicator light of the instrument was off; the instrument started to automatically test the sample and output the results.

[4] = mean, G5 Test group 2#, 10 mg/kg PO QD × 7
[5] = 100 mg/kg PO QD, 28 days (Test group 3#) vs solvent group

NCc1c[nH]c(=S)n1[C@H]1CCc2c(F)cc(F)cc2C1 [Nepicastat]
symptoms caused by DSS-induced colitis (body weight loss, diarrhea, hematochezia) [1]: effectively alleviated the symptoms of body weight loss, diarrhea and hematochezia | DSS-induced body weight loss ([1]; vs solvent group): effectively alleviated DSS-induced body weight loss | disease activity score (DAI) ([1]; vs solvent group): significantly lower than that in the solvent group | effects on DNBS-induced colitis in rats [2]: certain prophylactic and therapeutic effects | total score of colon tissue injury ([3]; 10 mg/kg (Test group 2#)): significantly reduce | Pathological score, Distal end, Damage [3, 4]: 0.93 | Pathological score, Distal end, Inflammation [3, 4]: 2.07 | Pathological score, Proximal end, Damage [3, 4]: 0.47 | Pathological score, Proximal end, Inflammation [3, 4]: 1.60 | Pathological score, Total score, Damage [3, 4]: 3.53 | Pathological score, Total score, Inflammation [3, 4]: 6.07 | Pathological score, Ulcer end, Damage [3, 4]: 2.13 | Pathological score, Ulcer end, Inflammation [3, 4]: 2.40 | lymphocytes in peripheral blood (peripheral blood cells; [5]): significant differences in reducing | monocytes in peripheral blood (peripheral blood cells; [5]): significant differences in reducing | neutrophils in peripheral blood (peripheral blood cells; [5]): significant differences in reducing | number of increased inflammatory cells in peripheral blood after bleomycin stimulation (peripheral blood cells; 50 and 100 mg/kg PO QD, 28 days (Test groups 2#, 3#)): reduce the number of increased inflammatory cells in peripheral blood
